{"source": "patent US20080160594A1", "about": "“Methods of Light Activated Release of Ligands from Endosomes” (INVITROGEN CORPORATION, priority 2001, published 2008)", "origin": "cited, not measured here", "conditions": "Vlassov et al., 1994", "data": [{"compound": "CCCCCCCC/C=C\\CCCCCCCCOCC(C[N+](C)(C)C)OCCCCCCCC/C=C\\CCCCCCCC.[Cl-]", "note": "(stereo not shown) [DOTMA, N-(1-(2,3-dioleyloxy)propyl)-N,N,N-trimethylammonium chloride]", "values": [{"measurement": "increase of the antisense effect of a phosphorothioate oligonucleotide", "result": 1000, "unit": "fold"}]}]}
